The supplement of paper PMC9386025

Key:
Experiment in all cases: drug sensitivity score (DSS) (DSS (dimensionless)); higher = more sensitive (stronger drug response)
FIMM-PDC4 = patient-derived ovarian cancer cells; settings: genetic perturbation: none (patient-derived cell culture)
Procedure, shortened: (§1)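 Drugs were pre-plated in 384-well plates at five concentrations covering a 10,000-fold range, and 1 000 – 1 500 cells per well were added from patient-derived cultures or from ovarian cancer cell lines whose shRNA had been induced with 100 ng/ml doxycycline for three days or longer. Incubation lasted three days at 37 °C under 5.0 % CO2. A PHERAstar FS then recorded CellTiter-Glo luminescence as the readout of viability. A drug sensitivity score, calculated as described before, summarised the dose-response curve of every drug.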

FIMM-PDC1 = patient-derived ovarian cancer cells; settings: genetic perturbation: none (patient-derived cell culture)
Procedure, shortened: as §1

JHOS2 = test system: JHOS2
Procedure, shortened: as §1

OVSAHO = test system: OVSAHO
Procedure, shortened: as §1

FIMM-PDC5 = patient-derived ovarian cancer cells; settings: genetic perturbation: none (patient-derived cell culture)
Procedure, shortened: as §1

Kuramochi = test system: Kuramochi
Procedure, shortened: as §1

FIMM-PDC3 = patient-derived ovarian cancer cells; settings: genetic perturbation: none (patient-derived cell culture)
Procedure, shortened: as §1

FIMM-PDC6 = patient-derived ovarian cancer cells; settings: genetic perturbation: none (patient-derived cell culture)
Procedure, shortened: as §1

FIMM-PDC7 = patient-derived ovarian cancer cells; settings: genetic perturbation: none (patient-derived cell culture)
Procedure, shortened: as §1

[1] = genetic perturbation: DOX-induced PTK7 shRNA knockdown
[2] = genetic perturbation: DOX-induced control shRNA

SMILES | drug sensitivity score (FIMM-PDC4) | drug sensitivity score (FIMM-PDC1) | drug sensitivity score (JHOS2; [1]) | drug sensitivity score (JHOS2; [2]) | drug sensitivity score (OVSAHO; [1]) | drug sensitivity score (OVSAHO; [2]) | drug sensitivity score (FIMM-PDC5) | drug sensitivity score (Kuramochi; [1]) | drug sensitivity score (Kuramochi; [2]) | drug sensitivity score (FIMM-PDC3) | drug sensitivity score (FIMM-PDC6) | drug sensitivity score (FIMM-PDC7)
CS(=O)(=O)N1CCN(Cc2cc3nc(-c4cccc5[nH]ncc45)nc(N4CCOCC4)c3s2)CC1 [Pictilisib] | 15.1 | 8.15 | 5.9 | 9 | 11.7 | 14.1 | 16.5 | 14 | 7.2 | 8.3 | 11.5 | 12.1
O=C(/C=C\n1cnc(-c2cc(C(F)(F)F)cc(C(F)(F)F)c2)n1)NNc1cnccn1 [Selinexor] | 17.1 | 12.4 | 18.8 | 14.5 | 14.8 | 7.4 | 20.1 | 9.85 | 13.5 | 22.4 | 24.4 | 19.5
CC[C@H](CC#N)OC(=O)N[C@@H](C)c1cccc(NC(=O)Nc2ccc(-c3cnco3)c(OC)c2)c1 [AVN944] | 7.4 | 7.65 | 5.8 | 9.6 | 11.7 | 9.7 | 18.1 | 9.7 | 8.9 | 12 | 6.6 | 10
Cn1cc(CNCC2CCN(c3ncc(C(=O)NO)cn3)CC2)c2ccccc21 [Quisinostat] | 5.1 | 11 | 10.9 | 12.5 | 13.6 | 12 | 14.6 | 17.4 | 6.5 | 16.5 | 11.8 | 8.6
CC(C)c1cc(C(=O)N2Cc3ccc(CN4CCN(C)CC4)cc3C2)c(O)cc1O [Onalespib] | 15.1 | 10.4 | 10.3 | 11.4 | < 0 | 5.4 | 12.5 | 7.1 | < 0 | 9.4 | 12.8 | 10.6
C=CC(=O)N1CCC(Oc2cc3c(Nc4ccc(Cl)c(Cl)c4F)ncnc3cc2OC)CC1 [Poziotinib] | 22.9 | 3.5 | < 0 | < 0 | 2.6 | 0.3 | 27.2 | 0.95 | 1.4 | 16.4 | 21.2 | 16.1
O=C(/C=C\n1cnc(-c2cc(C(F)(F)F)cc(C(F)(F)F)c2)n1)NNc1ccccn1 [Verdinexor] | 11.2 | 3.7 | 11.3 | 7.7 | 6.1 | 3.2 | 11 | 4.4 | 5.2 | 10.9 | 11.7 | 11.5
C=CC(=O)Nc1cccc(Nc2nc(Nc3ccc(N4CCN(C(C)=O)CC4)cc3OC)ncc2C(F)(F)F)c1 [Rociletinib] | 10 | 5.2 | 3.6 | 2.1 | 9.1 | 5.1 | 10.3 | 4.75 | 4.6 | 7.6 | 10.3 | 10.7
Cc1nc(-c2cn3c(n2)-c2ccc(-c4cnn(C(C)(C)C(N)=O)c4)cc2OCC3)n(C(C)C)n1 [Taselisib] | 9.5 | 4.2 | 4.3 | 2.4 | 3.1 | 4.7 | 11.6 | 4.5 | 1.1 | 6.7 | 6.3 | 12.3
Cn1cnc2c(F)c(Nc3ccc(Br)cc3Cl)c(C(=O)NOCCO)cc21 [Selumetinib] | 10 | < 0 | 0.7 | 8.6 | 13.5 | 1.7 | 11.4 | 7.5 | 2 | 4.9 | 7.6 | 10.3
O=C(O)c1ccc2c(c1)nc(Nc1cccc(Cl)c1)c1ccncc12 [Silmitasertib] | 1.5 | 3.2 | 3.3 | 3.6 | 5.5 | 5.8 | 6.6 | 5.55 | 4.5 | 4.8 | < 0 | 2.8
CC[C@]1(O)C[C@H]2CN(CCc3c([nH]c4ccccc34)[C@@](C(=O)OC)(c3cc4c(cc3OC)N(C=O)[C@H]3[C@@](O)(C(=O)OC)[C@H](OC(C)=O)[C@]5(CC)C=CCN6CC[C@]43[C@@H]65)C2)C1 [Vincristine] | 8.9 | 14.9 |  |  | 3.4 | 9.1 | 6.4 | 4.75 | 2.7 | 13.8 | 0.5 | 5
Nc1ccn([C@@H]2O[C@H](CO)[C@@H](O)[C@@H]2O)c(=O)n1 [Cytarabine] | 3.6 | < 0 | 13.4 | 7.2 | 4.1 | < 0 | 10.5 |  |  | 2.1 | 6 | 5.7
Cc1ccc(C(=O)Nc2ccc(CN3CCN(C)CC3)c(C(F)(F)F)c2)cc1C#Cc1cnc2cccnn12 [Ponatinib] |  |  | 4.7 | 6.9 | 10.2 | 8.3 |  | 7.8 | 8 |  |  | 
CCN(CC)CCCC(C)Nc1ccnc2cc(Cl)ccc12 (stereo not drawn) [Chloroquine] | 9.1 | 7.6 | 8.4 | 7.8 | 8.6 | 5.8 | 9 |  |  | 8.8 | 5.8 | 7.7
